Measurements as given in US20060040884A1, “Antisense oligonucleotides directed to genes regulated by trapoxin-induced HDAC inhibition” (priority 2001, published 2006).
Where “and” joins values, the source holds several entries; their conditions need not be identical. Equal entries are not always repeated. Marks after values point to notes of the source that are not given here. Square brackets hold non-standard residues; d marks the D form. Peptide text beside a SMILES is read from it. ξ: configuration not given here. Aoe(9ξ) = N[C@@H](CCCCCC(=O)C1CO1)C(=O)O; dPip = O=C(O)[C@H]1CCCCN1

System: H1299 cells
Test: Microarray expression profiling of TPX- vs DMSO-treated H1299 cells (Affymetrix HU6800 and Incyte UniGem V arrays)
Assay type: cell-based, human
Details: 30 nM vs DMSO
Experimental: Cell Culture and Drug Treatments. […] H1299 cells at 60 to 80% confluence are treated with 30 nM TPX dissolved in dimethyl sulphoxide for a final concentration of 0.1% Me2SO in cell culture medium or 0.1% Me2SO for 0, 6, 12, and 18 h.
Incyte cDNA arrays. H1299 cells are treated with 30 nM TPX dissolved in Me2SO or Me2SO for 0, 6, 12 and 18 h. Final Me2SO concentrations were 0.1% in cell culture medium. Total RNA is extracted using TRIZOL reagent (Life Technologies, Rockville, Md.) and purified using RNAeasy reagents (Qiagen, Valencia Calif.). Poly (A)^+ RNA (mRNA) is prepared from total RNA using Oligotex columns (Qiagen, Valencia, Calif.) and the procedure is repeated twice to minimize contamination with ribosomal RNA. The mRNA concentrations are determined using RiboGreen RNA Quantitation kit (Molecular Probes, Eugene, Oreg.) and equal amounts of mRNA from each sample is used in labeling reactions that are performed by Synteni Division of Incyte Genomics, Inc. (Palo Alto, Calif.). Complementary DNAs are prepared by […] and labeled with Cy3-deoxyuridine triphosphate (Cy3) or Cy5-deoxyuridine triphosphate (Cy5) fluorescent nucleotides. cDNA samples from cells that are treated with Me2SO are labeled with Cy3 and the TPX-treated samples are labeled with Cy5. Replicates were labeled with reversed fluorescent labels to accommodate biases attributable to labeling. The Cy3 and Cy5 samples from each time point are combined and hybridized to UniGem […] arrays (Iyer, V. R., et al., (1999) Science 283, 83-87). This array contains cDNAs that represent approximately 7000 human genes.
Affymetrix oligonucleotide arrays. Total RNA and Poly (A)^+ RNA is isolated from TPX or Me2SO-treated H1299 cells essentially as it was for Incyte cDNA arrays. Total RNA is isolated from p21^waf1-10 cells that are grown in the presence or in the absence of tetracycline for 6, 12 and 48 h. 1st strand cDNA synthesis is performed using Superscript Choice System (Life Technologies) and a T7prFB-t30 primer, 5′-AAACGACGGCACA […]-t30-3′ (SEQ ID NO 1). Biotinylated complementary […] is made using the T7 Megascript system (Ambion, Austin, Tex.), substituting NTP labeling-mix containing biotinylated CTP and UTP. The labeled, purified cDNA is fragmented into <50 bp pieces at 95° C. in MgCl2 buffer to-increase the efficiency of hybridization to 20-mer oligos on the arrays. These labeled fragments are hybridized to HU6800 arrays (Affymetrix, Santa Clara, Calif.) as described previously (Lockhart, D. J., et al., (1996) Nat. Biotechnol. 14, 1675-1680; Alon, U. et al., (1999) Proc. Natl. Acad. Sci. U.S.A. 96, 6745-6750). This array represents approximately 7000 human genes. Briefly, samples are hybridized for 16 h at 45° C. with constant rotation at 60 rpm. The arrays are washed and stained using an Affymetrix fluidics station. The stain included streptavidin-phycoerythrin (10 μg/ml; Molecular Probes, Eugene, Oreg.) and biotinylated goat anti-streptavidin (3 μg/ml; Vector Laboratories, Burlingame, Calif.).
Imaging and Data Analysis. Affymetrix arrays are scanned with a HP argon-ion laser confocal microscope, with a 488 nm […] and detection at 570 nm. Affymetrix fold changes are calculated using GeneChip 3.3 software (Affymetrix). Incyte Pharmaceutical Inc. uses a laser confocal microscope to determine the fluorescence intensities from Incyte cDNA arrays. The fluorescent images (Cy3 and Cy5) from the Incyte cDNA arrays are normalized to total fluorescence from each channel for all genes for labeling efficiency differences and considered the normalized data is used for calculation of the gene expression ratios.

Q: With `O=C(CCCCC[C@@H]1NC(=O)[C@H]2CCCCN2C(=O)[C@H](Cc2ccccc2)NC(=O)[C@H](Cc2ccccc2)NC1=O)C1CO1` (stereo partly drawn) [TPX, Trapoxin A] (cyclo(FF[dPip][Aoe(9ξ)])) as the compound, how does the “Fold change, D85429 Hsp 40” value (12 h) read?
A: 4.8^8 fold and 5.3^8 fold

Q: What about the “Fold change, J03909 γ-IFN-inducible, IP-30” value (12 h) of the same compound?
A: 4.7^7 fold and 5.2^8 fold

Q: What about the “Fold change, L03840 Fibroblast growth factor receptor” value (12 h) of the same compound?
A: 3.2* fold and 4.9^1 fold

Q: What about the “Fold change, L32976 Mixed lineage kinase-3” value (12 h) of the same compound?
A: −2.4* fold

Q: And the “Fold change, M12174 RhoB” value (12 h)?
A: 5.2^8 fold and 4.5^8 fold

Q: And the “Fold change, M16938 Homeobox C8” value (12 h)?
A: NC (<2 fold change in expression level (NC))

Q: What about the “Fold change, M55153 Transglutaminase 2” value (12 h) of the same compound?
A: NC (<2 fold change in expression level (NC))

Q: And the “Fold change, M59828 Hsp 70” value (12 h)?
A: NC (<2 fold change in expression level (NC))

Q: And the “Fold change, M76125 Tyrosine kinase receptor (TKR) axl” value (12 h)?
A: NC (<2 fold change in expression level (NC))

Q: And the “Fold change, M80244 Human E16” value (12 h)?
A: NC (<2 fold change in expression level (NC))

Q: And the “Fold change, M86406 Actinin” value (12 h)?
A: 2.1 fold and 2.4 fold

Q: And the “Fold change, NM006603 Stromal antigen 2” value (12 h)?
A: NC (<2 fold change in expression level (NC))

Q: What about the “Fold change, U03057 Actin-bundling protein” value (12 h) of the same compound?
A: 2.4^7 fold and 2.0^7 fold

Q: What about the “Fold change, U09578 MAKAP kinase (3 pk)” value (12 h) of the same compound?
A: NC (<2 fold change in expression level (NC))

Q: And the “Fold change, U09579 p21waf1 (1st line)” value (12 h)?
A: 10.5^8 fold and 7.0^8 fold

Q: What about the “Fold change, U09579 p21waf1 (2nd line)” value (12 h) of the same compound?
A: 3.4 fold and 3.6 fold

Q: What about the “Fold change, U09937 Upa receptor (UpaR) (1st line)” value (12 h) of the same compound?
A: NC (<2 fold change in expression level (NC))

Q: And the “Fold change, U14750 Connective tissue growth factor” value (12 h)?
A: 5.6 fold and 3.5 fold

Q: And the “Fold change, U15782 Cleavage stimulation factor 3” value (12 h)?
A: NC (<2 fold change in expression level (NC))

Q: What about the “Fold change, U25804 Caspase-4” value (12 h) of the same compound?
A: NC (<2 fold change in expression level (NC))

Q: What about the “Fold change, U30827 Srp40” value (12 h) of the same compound?
A: NC (<2 fold change in expression level (NC))

Q: What about the “Fold change, U31875 Hep27” value (12 h) of the same compound?
A: 11.2^8 fold and 12.3^8 fold

Q: What about the “Fold change, U32519 GAP SH3 binding protein” value (12 h) of the same compound?
A: 8.3^8 fold and 4.3^3 fold

Q: What about the “Fold change, U48795 Cathelicidin antimicrobial peptide” value (12 h) of the same compound?
A: 8.5 fold

Q: What about the “Fold change, U56833 VBP-1” value (12 h) of the same compound?
A: NC (<2 fold change in expression level (NC))

Q: What about the “Fold change, U77413 O-linked-N-acetylglucosamine transferase” value (12 h) of the same compound?
A: NC (<2 fold change in expression level (NC))

Q: And the “Fold change, U84214 Defender against cell death 1” value (12 h)?
A: 2.5 fold and 2.0 fold

Q: What about the “Fold change, X03473 Histone H1 (0) [Chromatin remodeling]” value (12 h) of the same compound?
A: 12.0^8 fold and 11.9^8 fold

Q: What about the “Fold change, X03473 Histone H1 (0) [Differentiation]” value (12 h) of the same compound?
A: 12.0^8 fold and 11.9^8 fold

Q: And the “Fold change, X04429 Plasminogen activator inhibitor 1” value (12 h)?
A: NC (<2 fold change in expression level (NC))

Q: And the “Fold change, X16396 NAD-dependent methylene teterahydrofolate dehydrogenase-methylenyltetrahydrofolate cyclohydrolase” value (12 h)?
A: NC (<2 fold change in expression level (NC))

Q: What about the “Fold change, X37547 Inhibitor of apoptisis homolog C” value (12 h) of the same compound?
A: NC (<2 fold change in expression level (NC))

Q: What about the “Fold change, X53586 Integrin α-6” value (12 h) of the same compound?
A: NC (<2 fold change in expression level (NC))

Q: And the “Fold change, X55740 5′-nucleotidase” value (12 h)?
A: NC (<2 fold change in expression level (NC))

Q: What about the “Fold change, X66029 TKR axl” value (12 h) of the same compound?
A: NC (<2 fold change in expression level (NC))

Q: What about the “Fold change, X78687 G9 sialidase” value (12 h) of the same compound?
A: 4.3^8 fold and 4.5^8 fold

Q: What about the “Fold change, A1581499 Apoptosis inhibitor 2” value (18 h) of the same compound?
A: NC (<2 fold change in expression level (NC))

Q: And the “Fold change, AB011146 KIAA0574, similar to an RNA binding protein” value (18 h)?
A: NC (<2 fold change in expression level (NC))

Q: And the “Fold change, AF012086 RAN-binding protein 2-like” value (18 h)?
A: NC (<2 fold change in expression level (NC))

Q: And the “Fold change, AF052578 RAN [Small GTP-ases]” value (18 h)?
A: 2.5 fold and 3.3 fold

Q: What about the “Fold change, AF109161 p35srj [Stress]” value (18 h) of the same compound?
A: 3.4 fold and 3.3 fold

Q: What about the “Fold change, AF109161 p35srj [Transformation and TKRs]” value (18 h) of the same compound?
A: 3.4 fold and 3.3 fold

Q: And the “Fold change, AL047358 Insulin-induced gene 1” value (18 h)?
A: 2.0 fold and 2.9 fold

Q: And the “Fold change, AL047358 Spermidine/spermine N1-acetyltransferase” value (18 h)?
A: 2.3 fold and 3.4 fold

Q: What about the “Fold change, D31764 Eph1B-like tyrosine kinase receptor” value (18 h) of the same compound?
A: NC (<2 fold change in expression level (NC))

Q: And the “Fold change, D50525 TI-227H” value (18 h)?
A: NC (<2 fold change in expression level (NC))

Q: What about the “Fold change, D85429 Hsp 40” value (18 h) of the same compound?
A: 17.1^8 fold and 15.6^8 fold

Q: And the “Fold change, J03909 γ-IFN-inducible, IP-30” value (18 h)?
A: 17.1^8 fold and 15.6^8 fold

Q: What about the “Fold change, L03840 Fibroblast growth factor receptor” value (18 h) of the same compound?
A: 3.7 fold and 4.4 fold

Q: And the “Fold change, M12174 RhoB” value (18 h)?
A: 6.2^8 fold and 6.1^8 fold

Q: And the “Fold change, M55153 Transglutaminase 2” value (18 h)?
A: 2.1 fold and 2.6 fold

Q: What about the “Fold change, M58286 TNF Receptor” value (18 h) of the same compound?
A: NC (<2 fold change in expression level (NC))

Q: And the “Fold change, M59828 Hsp 70” value (18 h)?
A: NC (<2 fold change in expression level (NC))

Q: And the “Fold change, M80899 AHNAK nucleoprotein/desmoykin” value (18 h)?
A: NC (<2 fold change in expression level (NC))

Q: What about the “Fold change, M86406 Actinin” value (18 h) of the same compound?
A: NC (<2 fold change in expression level (NC))

Q: What about the “Fold change, U03057 Actin-bundling protein” value (18 h) of the same compound?
A: NC (<2 fold change in expression level (NC))

Q: And the “Fold change, U09579 p21waf1 (1st line)” value (18 h)?
A: 3.8* fold and 4.0* fold

Q: And the “Fold change, U09579 p21waf1 (2nd line)” value (18 h)?
A: 2.7 fold and 3.1 fold

Q: What about the “Fold change, U14750 Connective tissue growth factor” value (18 h) of the same compound?
A: 3.6 fold and 4.5 fold

Q: And the “Fold change, U19261 Epstein-Barr-induced LMP1” value (18 h)?
A: NC (<2 fold change in expression level (NC))

Q: And the “Fold change, U28749 High mobility group phosphoprotein I-C (HMGI-C) (1st line)” value (18 h)?
A: NC (<2 fold change in expression level (NC))

Q: And the “Fold change, U30827 Srp40” value (18 h)?
A: NC (<2 fold change in expression level (NC))

Q: And the “Fold change, U31875 Hep27” value (18 h)?
A: 7.1^8 fold and 8.3^8 fold

Q: What about the “Fold change, U32519 GAP SH3 binding protein” value (18 h) of the same compound?
A: 4.6^8 fold and 4.2^8 fold

Q: What about the “Fold change, U48795 Cathelicidin antimicrobial peptide” value (18 h) of the same compound?
A: NC (<2 fold change in expression level (NC))

Q: And the “Fold change, U68019 hMAD3” value (18 h)?
A: NC (<2 fold change in expression level (NC))

Q: And the “Fold change, U79285 Clone 23828” value (18 h)?
A: NC (<2 fold change in expression level (NC))

Q: And the “Fold change, U84214 Defender against cell death 1” value (18 h)?
A: NC (<2 fold change in expression level (NC))

Q: And the “Fold change, X03473 Histone H1 (0) [Chromatin remodeling]” value (18 h)?
A: 3.4* fold and 3.6* fold

Q: What about the “Fold change, X03473 Histone H1 (0) [Differentiation]” value (18 h) of the same compound?
A: 3.4* fold and 3.6* fold

Q: What about the “Fold change, X37546 Inhibitor of apoptisis homolog B” value (18 h) of the same compound?
A: NC (<2 fold change in expression level (NC))

Q: What about the “Fold change, X78687 G9 sialidase” value (18 h) of the same compound?
A: 3.3^8 fold and 2.6^8 fold
